Reference: ChEMBL document CHEMBL1687690, “Antiproliferative and differentiating activities of a novel series of histone deacetylase inhibitors” (ACS Med Chem Lett, 2010)
The source made the active and inactive calls. No cut-off for these calls is given here.

Tests used:
NB-4 [1] = test: Potentiation of all-trans retinoic acid-induced human NB4 cells differentiation after 72 hrs by NBT-reductase activity assay relative HDAC inhibitor alone; type: functional
Histone deacetylase [2] = test: Inhibition of HDAC activity in human NB4 cells assessed as acetylation of histone H4 after 24 hrs by Western blot analysis; type: cell-based; details: nb-4
[3] = molecular target: T1, Histone deacetylase (Homo sapiens) (UniProt Q13547+O15379+Q9UBN7+Q92769+Q9UQL6+Q8WUI4+Q9BY41+Q96DB2+P56524+Q9UKV0+Q969S8); test: Inhibition of HDAC activity in human NB4 cells assessed as maximum acetylation of histone H4 at EC50 concentration after 24 hrs by Western blot analysis relative to control; type: cell-based; details: NB-4
HCT-116 [4] = test: Antiproliferative activity against human HCT116 cells after 24 hrs by alamar blue assay; type: functional, cell-based; details: HCT-116, 24 h
Tubulin = test: Inhibition of HDAC activity in human NB4 cells assessed as acetylated tubulin after 24 hrs by Western blot analysis; type: cell-based; details: nb-4
Histone deacetylase [5] = test: Inhibition of HDAC activity in human NB4 cells assessed as acetylation of histone H3 after 24 hrs by Western blot analysis; type: cell-based; details: nb-4
NB-4 [6] = test: Antiproliferative activity against human NB4 cells after 24 hrs by alamar blue assay; type: functional, cell-based; details: NB-4, 24 h
[7] = molecular target: T1, Histone deacetylase (Homo sapiens); test: Inhibition of HDAC activity in human NB4 cells assessed as maximum acetylation of histone H3 at EC50 concentration after 24 hrs by Western blot analysis relative to control; type: cell-based; details: NB-4
[8] = molecular target: T1, Histone deacetylase (Homo sapiens); test: Inhibition of HDAC activity in human NB4 cells assessed as maximum acetylated tubulin at EC50 concentration after 24 hrs by Western blot analysis relative to control; type: cell-based; details: NB-4
[9] = Ratio of IC50 for HDAC2 to IC50 for HDAC6
HCT-116 [10] = test: Antitumor activity against human HCT116 cells xenografted in athymic nude mouse assessed as decrease in tumor volume at 6.2 mg/kg, iv administered once daily for 5 days per week by caliper measurement; type: functional, organism-based; parameters: dose 6.2 mg/kg
HCT-116 [11] = test: Antitumor activity against human HCT116 cells xenografted in athymic nude mouse assessed as decrease in tumor volume at 12.5 mg/kg, iv administered once daily for 5 days per week by caliper measurement; type: functional, organism-based; parameters: dose 12.5 mg/kg
HCT-116 [12] = test: Antitumor activity against human HCT116 cells xenografted in athymic nude mouse assessed as decrease in tumor volume at 25 mg/kg, iv administered once daily for 5 days per week by caliper measurement; type: functional, organism-based; parameters: dose 25 mg/kg

Row | Compound | Ratio (NB-4 [1]) | EC50 (Histone deacetylase [2]) [nM] | Ratio [3] | IC50 (HCT-116 [4]) [nM] | EC50 (Tubulin) [nM] | EC50 (Histone deacetylase [5]) [nM] | IC50 (NB-4 [6]) [nM] | Ratio [7] | Ratio [8] | Ratio IC50 [9] | inhibition (HCT-116 [10]) | inhibition (HCT-116 [11]) | inhibition (HCT-116 [12])
1 | O=C(CCCCCN1C(=O)c2ccccc2Sc2ccccc21)NO | 5 | 430 | 89 | 390 | 370 | 460 | 190 | 190 | 2000 | – | – | – | –
2 | O=C(CCCCCN1C(=O)c2ccccc2S(=O)(=O)c2ccccc21)NO | 14 | 720 | 336 | 150 | 50 | 500 | 120 | 342 | 10700 | 48 | – | – | –
3 | O=C(CCCCCN1C(=O)c2ccccc2Oc2ccc(Cl)cc21)NO | 1 | 530 | 9 | 200 | 440 | 380 | 160 | 3 | 932 | – | – | – | –
4 | COc1ccc2c(c1)N(CCCCCC(=O)NO)C(=O)c1ccccc1O2 | 7 | 320 | 206 | 310 | 90 | 200 | 140 | 61 | 1780 | – | – | – | –
5 | O=C(CCCCCN1C(=O)c2ccccc2S(=O)(=O)c2ccc(Cl)cc21)NO | 56 | 60 | 795 | 30 | 40 | 30 | 20 | 2110 | 8850 | – | – | – | –
6 | O=C(CCCCCN1C(=O)c2ccccc2Oc2ccccc21)NO | 2 | 3270 | 54 | 640 | 290 | 6240 | 610 | 15 | 2630 | 61 | – | – | –
7 | CN1c2ccccc2C(=O)N(CCCCCC(=O)NO)c2ccccc21 | 13 | 2950 | 14 | 8100 | 2740 | 2650 | 2460 | 10 | 40 | – | – | – | –
8 | O=C(CCCCCN1C(=O)c2ccccc2Sc2ccc(Cl)cc21)NO | 31 | 360 | 2330 | 60 | 150 | 340 | 30 | 200 | 13200 | – | inactive | Active | –
9 | O=C(CCCCCN1C(=O)c2ccccc2Nc2ccc(Cl)cc21)NO | 1 | 860 | 78 | 450 | 320 | 840 | 290 | 31 | 413 | – | – | – | –
10 | COc1ccc2c(c1)N(CCCCCC(=O)NO)C(=O)c1ccccc1S2 | 16 | 150 | 28 | 90 | 130 | 190 | 30 | 12 | 47 | – | – | – | Active
11 | COc1ccc2c(c1)N(CCCCCC(=O)NO)C(=O)c1ccccc1S2(=O)=O | 79 | 90 | 1460 | 40 | 50 | 30 | 20 | 4740 | 30600 | – | – | – | –
12 | O=C(CCCCCN1C(=O)c2ccccc2Nc2ccccc21)NO | 6 | 1530 | 126 | > 10000 | 1170 | 1300 | 730 | 188 | 402 | – | – | – | –
13 | COc1ccc2c(c1)N(CCCCCC(=O)NO)C(=O)c1ccccc1N2 | 1 | 280 | 244 | 360 | 250 | 390 | 140 | 7 | 199 | – | – | – | –
